Species on record: Rattus norvegicus
Experiment: DrugMatrix - Regimen: Daily Repeat
Assay type: toxicity, organism-based, Sprague-Dawley
Set-up: regimen Daily Repeat, gender Male, age 6-8 weeks
Settings: in vivo, po, route oral GAVAGE, vehicle .5 % CMC; for ABSOLUTE BASOPHIL / ABSOLUTE EOSINOPHIL / ABSOLUTE LYMPHOCYTE / ABSOLUTE MONOCYTE / ABSOLUTE SEGMENTED NEUTROPHIL / BASOPHIL / EOSINOPHIL / ERYTHROCYTE COUNT / HEMATOCRIT / HEMOGLOBIN / LEUKOCYTE COUNT / LYMPHOCYTE / MEAN CORPUSCULAR HEMOGLOBIN / MEAN CORPUSCULAR HEMOGLOBIN CONCENTRATION / MEAN CORPUSCULAR VOLUME / MONOCYTE / NEUTROPHIL / NUCLEATED RED BLOOD CELLS / PLATELET COUNT: tissue Blood; for ALANINE AMINOTRANSFERASE / ALBUMIN / ALKALINE PHOSPHATASE / ASPARTATE AMINOTRANSFERASE / BLOOD UREA NITROGEN / CARBON DIOXIDE / CHLORIDE / CHOLESTEROL / CREATINE PHOSPHOKINASE / CREATININE / GLUCOSE / LACTATE DEHYDROGENASE / LIPASE / PHOSPHORUS / POTASSIUM / SODIUM / TOTAL BILIRUBIN / TOTAL PROTEIN / URIC ACID: tissue Plasma
[1] = 0.006 mg/kg, 72 h, dose level Low, time 3 day
[2] = 0.006 mg/kg, 120 h, dose level Low, time 5 day
[3] = 0.04 mg/kg, 72 h, dose level High, time 3 day
[4] = 0.04 mg/kg, 120 h, dose level High, time 5 day

SMILES: C=C1/C(=C\C=C2/CCC[C@]3(C)[C@@H]([C@H](C)CCCC(C)(C)O)CC[C@@H]23)C[C@@H](O)C[C@@H]1O [CALCITRIOL]
- ABSOLUTE BASOPHIL [1]: 0 CELLS/uL
- ABSOLUTE EOSINOPHIL [1]: 45.67 CELLS/uL
- ABSOLUTE LYMPHOCYTE [1]: 10032.33 CELLS/uL
- ABSOLUTE MONOCYTE [1]: 329.67 CELLS/uL
- ABSOLUTE SEGMENTED NEUTROPHIL [1]: 1592.33 CELLS/uL
- BASOPHIL [1]: 0%
- EOSINOPHIL [1]: 0.33%
- ERYTHROCYTE COUNT [1]: 5.61 x10E6/uL
- HEMATOCRIT [1]: 34.07%
- HEMOGLOBIN [1]: 13.17 G/DL
- LEUKOCYTE COUNT [1]: 12 x10E3/uL
- LYMPHOCYTE [1]: 84%
- MEAN CORPUSCULAR HEMOGLOBIN [1]: 23.57 pg
- MEAN CORPUSCULAR HEMOGLOBIN CONCENTRATION [1]: 38.7 G/DL
- MEAN CORPUSCULAR VOLUME [1]: 60.93 fL
- MONOCYTE [1]: 2.67%
- NEUTROPHIL [1]: 13%
- NUCLEATED RED BLOOD CELLS [1]: 0 /100WBC
- PLATELET COUNT [1]: 1046.67 x10E3/uL
- ALANINE AMINOTRANSFERASE [1]: 66.67 u/L
- ALBUMIN [1]: 3.93 G/DL
- ALKALINE PHOSPHATASE [1]: 358 u/L
- ASPARTATE AMINOTRANSFERASE [1]: 93.67 u/L
- BLOOD UREA NITROGEN [1]: 17 mg/dL
- CARBON DIOXIDE [1]: 25.33 mmol/L
- CHLORIDE [1]: 101.33 MEQ/L
- CHOLESTEROL [1]: 73 mg/dL
- CREATINE PHOSPHOKINASE [1]: 357 u/L
- CREATININE [1]: 0.21 mg/dL
- GLUCOSE [1]: 146.67 mg/dL
- LACTATE DEHYDROGENASE [1]: 503.33 u/L
- LIPASE [1]: 11 u/L
- PHOSPHORUS [1]: 13.67 mg/dL
- POTASSIUM [1]: 6.19 MEQ/L
- SODIUM [1]: 143.5 MEQ/L
- TOTAL BILIRUBIN [1]: 0.17 mg/dL
- TOTAL PROTEIN [1]: 5.8 G/DL
- URIC ACID [1]: 1.47 mg/dL
- ABSOLUTE BASOPHIL [2]: 0 CELLS/uL
- ABSOLUTE EOSINOPHIL [2]: 0 CELLS/uL
- ABSOLUTE LYMPHOCYTE [2]: 11413 CELLS/uL
- ABSOLUTE MONOCYTE [2]: 402.33 CELLS/uL
- ABSOLUTE SEGMENTED NEUTROPHIL [2]: 1784.67 CELLS/uL
- BASOPHIL [2]: 0%
- EOSINOPHIL [2]: 0%
- ERYTHROCYTE COUNT [2]: 5.87 x10E6/uL
- HEMATOCRIT [2]: 34.33%
- HEMOGLOBIN [2]: 13.57 G/DL
- LEUKOCYTE COUNT [2]: 13.6 x10E3/uL
- LYMPHOCYTE [2]: 84%
- MEAN CORPUSCULAR HEMOGLOBIN [2]: 23.17 pg
- MEAN CORPUSCULAR HEMOGLOBIN CONCENTRATION [2]: 39.53 G/DL
- MEAN CORPUSCULAR VOLUME [2]: 58.53 fL
- MONOCYTE [2]: 3%
- NEUTROPHIL [2]: 13%
- NUCLEATED RED BLOOD CELLS [2]: 0 /100WBC
- PLATELET COUNT [2]: 1088.67 x10E3/uL
- ALANINE AMINOTRANSFERASE [2]: 57.33 u/L
- ALBUMIN [2]: 4.37 G/DL
- ALKALINE PHOSPHATASE [2]: 445.33 u/L
- ASPARTATE AMINOTRANSFERASE [2]: 99.67 u/L
- BLOOD UREA NITROGEN [2]: 19 mg/dL
- CARBON DIOXIDE [2]: 31.33 mmol/L
- CHLORIDE [2]: 95.33 MEQ/L
- CHOLESTEROL [2]: 61 mg/dL
- CREATINE PHOSPHOKINASE [2]: 435 u/L
- CREATININE [2]: 0.17 mg/dL
- GLUCOSE [2]: 145 mg/dL
- LACTATE DEHYDROGENASE [2]: 606.67 u/L
- LIPASE [2]: 10.33 u/L
- PHOSPHORUS [2]: 11.6 mg/dL
- POTASSIUM [2]: 5.78 MEQ/L
- SODIUM [2]: 141.37 MEQ/L
- TOTAL BILIRUBIN [2]: 0.13 mg/dL
- TOTAL PROTEIN [2]: 6.37 G/DL
- URIC ACID [2]: 1.6 mg/dL
- ABSOLUTE BASOPHIL [3]: 0 CELLS/uL
- ABSOLUTE EOSINOPHIL [3]: 117 CELLS/uL
- ABSOLUTE LYMPHOCYTE [3]: 9651 CELLS/uL
- ABSOLUTE MONOCYTE [3]: 117 CELLS/uL
- ABSOLUTE SEGMENTED NEUTROPHIL [3]: 6315 CELLS/uL
- BASOPHIL [3]: 0%
- EOSINOPHIL [3]: 0.67%
- ERYTHROCYTE COUNT [3]: 6 x10E6/uL
- HEMATOCRIT [3]: 37.07%
- HEMOGLOBIN [3]: 14.33 G/DL
- LEUKOCYTE COUNT [3]: 16.2 x10E3/uL
- LYMPHOCYTE [3]: 57.67%
- MEAN CORPUSCULAR HEMOGLOBIN [3]: 23.93 pg
- MEAN CORPUSCULAR HEMOGLOBIN CONCENTRATION [3]: 38.67 G/DL
- MEAN CORPUSCULAR VOLUME [3]: 62 fL
- MONOCYTE [3]: 0.67%
- NEUTROPHIL [3]: 41%
- NUCLEATED RED BLOOD CELLS [3]: 0 /100WBC
- PLATELET COUNT [3]: 1193.33 x10E3/uL
- ALANINE AMINOTRANSFERASE [3]: 118.67 u/L
- ALBUMIN [3]: 3.1 G/DL
- ALKALINE PHOSPHATASE [3]: 333 u/L
- ASPARTATE AMINOTRANSFERASE [3]: 517.33 u/L
- BLOOD UREA NITROGEN [3]: 95 mg/dL
- CARBON DIOXIDE [3]: 24 mmol/L
- CHLORIDE [3]: 100 MEQ/L
- CHOLESTEROL [3]: 98.67 mg/dL
- CREATINE PHOSPHOKINASE [3]: 1977.67 u/L
- CREATININE [3]: 1.67 mg/dL
- GLUCOSE [3]: 129.67 mg/dL
- LACTATE DEHYDROGENASE [3]: 1234.67 u/L
- LIPASE [3]: 10 u/L
- PHOSPHORUS [3]: 17.23 mg/dL
- POTASSIUM [3]: 5.62 MEQ/L
- SODIUM [3]: 140.85 MEQ/L
- TOTAL BILIRUBIN [3]: 0.2 mg/dL
- TOTAL PROTEIN [3]: 5.9 G/DL
- URIC ACID [3]: 1.93 mg/dL
- ABSOLUTE BASOPHIL [4]: 0 CELLS/uL
- ABSOLUTE EOSINOPHIL [4]: 37.4 CELLS/uL
- ABSOLUTE LYMPHOCYTE [4]: 15678.4 CELLS/uL
- ABSOLUTE MONOCYTE [4]: 350.8 CELLS/uL
- ABSOLUTE SEGMENTED NEUTROPHIL [4]: 1413.4 CELLS/uL
- BASOPHIL [4]: 0%
- EOSINOPHIL [4]: 0.2%
- ERYTHROCYTE COUNT [4]: 6.14 x10E6/uL
- HEMATOCRIT [4]: 35.74%
- HEMOGLOBIN [4]: 13.9 G/DL
- LEUKOCYTE COUNT [4]: 17.48 x10E3/uL
- LYMPHOCYTE [4]: 89.8%
- MEAN CORPUSCULAR HEMOGLOBIN [4]: 22.62 pg
- MEAN CORPUSCULAR HEMOGLOBIN CONCENTRATION [4]: 38.88 G/DL
- MEAN CORPUSCULAR VOLUME [4]: 58.22 fL
- MONOCYTE [4]: 2%
- NEUTROPHIL [4]: 8%
- NUCLEATED RED BLOOD CELLS [4]: 0.2 /100WBC
- PLATELET COUNT [4]: 1031.8 x10E3/uL
- ALANINE AMINOTRANSFERASE [4]: 34.8 u/L
- ALBUMIN [4]: 3.62 G/DL
- ALKALINE PHOSPHATASE [4]: 233.8 u/L
- ASPARTATE AMINOTRANSFERASE [4]: 68.4 u/L
- BLOOD UREA NITROGEN [4]: 19.4 mg/dL
- CARBON DIOXIDE [4]: 30.2 mmol/L
- CHLORIDE [4]: 98.6 MEQ/L
- CHOLESTEROL [4]: 99.6 mg/dL
- CREATINE PHOSPHOKINASE [4]: 347.4 u/L
- CREATININE [4]: 0.2 mg/dL
- GLUCOSE [4]: 143.4 mg/dL
- LACTATE DEHYDROGENASE [4]: 272.4 u/L
- LIPASE [4]: 9.2 u/L
- PHOSPHORUS [4]: 10.48 mg/dL
- POTASSIUM [4]: 5.5 MEQ/L
- SODIUM [4]: 142.72 MEQ/L
- TOTAL BILIRUBIN [4]: 0.1 mg/dL
- TOTAL PROTEIN [4]: 5.84 G/DL
- URIC ACID [4]: 1.34 mg/dL

Reference: ChEMBL document CHEMBL3885881, “DrugMatrix”
